# Like-named read-outs stand apart in the source and are kept apart here.
# Tests used:
# SARS-CoV-2 3CL protease [1] = target: T1, SARS-CoV-2 3CL protease (Severe acute respiratory syndrome coronavirus 2, UniProt P0DTD1); assay: biochemical; details: IC50
# SARS-CoV-2 3CL protease [2] = target: T1, SARS-CoV-2 3CL protease; format: biochemical; design: Avg: unit not given here; details: for Inhibition at 10 µM: 10 µM compound; for Inhibition at 100 µM: 100 µM compound; for IC50 / LogIC50: Figure S1 and S2
# [3] = Conc 10 µM, average response of dose-response curve
# [4] = Conc 15 µM, average response of dose-response curve
# [5] = Conc 20 µM, average response of dose-response curve
# [6] = Conc 50 µM, average response of dose-response curve
# [7] = Conc 100 µM, average response of dose-response curve
# [8] = Conc 200 µM, average response of dose-response curve
# [9] = dose-response retest of fragment hits
# [10] = log of IC50 (µM), dose-response curve fit
# [11] = Conc 10 µM, mean response (inhibition) of dose-response curve
# [12] = Conc 15 µM, mean response (inhibition) of dose-response curve
# [13] = Conc 20 µM, mean response (inhibition) of dose-response curve
# [14] = Conc 50 µM, mean response (inhibition) of dose-response curve
# [15] = Conc 100 µM, mean response (inhibition) of dose-response curve
# [16] = Conc 200 µM, mean response (inhibition) of dose-response curve
# [17] = dose-response curve of fragment hit
Compound,Inhibition at 10 µM (SARS-CoV-2 3CL protease [2]) [%],Inhibition at 100 µM (SARS-CoV-2 3CL protease [2]) [%],Avg (SARS-CoV-2 3CL protease [2]; [3]),Avg (SARS-CoV-2 3CL protease [2]; [4]),Avg (SARS-CoV-2 3CL protease [2]; [5]),Avg (SARS-CoV-2 3CL protease [2]; [6]),Avg (SARS-CoV-2 3CL protease [2]; [7]),Avg (SARS-CoV-2 3CL protease [2]; [8]),IC50 (SARS-CoV-2 3CL protease [2]; [9]) [µM],LogIC50 (SARS-CoV-2 3CL protease [2]; log of IC50 in µM),Avg (SARS-CoV-2 3CL protease [2]; Conc 10 µM),Avg (SARS-CoV-2 3CL protease [2]; Conc 15 µM),Avg (SARS-CoV-2 3CL protease [2]; Conc 20 µM),Avg (SARS-CoV-2 3CL protease [2]; Conc 50 µM),Avg (SARS-CoV-2 3CL protease [2]; Conc 100 µM),Avg (SARS-CoV-2 3CL protease [2]; Conc 200 µM),IC50 (SARS-CoV-2 3CL protease [2]; dose-response curve fit) [µM],LogIC50 (SARS-CoV-2 3CL protease [2]; [10]),further results
"O=c1[nH]sc2ccccc12 [AZVIII-40A, 1,2-Benzisothiazol-3(2H)-one, reference compound]",,,,,,,,,,,,,,,,,,,IC50 (SARS-CoV-2 3CL protease [1]): 0.79 µM
O=C(NCCc1ccc(F)cc1)n1ccnc1 [Z235353843],30,96,29.9,15.5,42.1,82.2,95.9,102.1,27.6,1.441,,,,,,,,,
Nc1nccnc1S [Z1868316802],21,92,20.5,24.1,32.6,92.3,91.8,82.9,23.3,1.368,,,,,,,,,
CC(C)Cc1ncc(CNC(=O)c2cccnc2S)s1 [Z1494348106],4,100,,,,,,,,,3.5,37.1,49.8,100.8,102.9,93.1,18.8,1.275,
CCC(=O)N1CCC(NC(=O)c2cccnc2S)C1 (stereo not drawn) [Z1429050837],24,100,,,,,,,,,24.1,26.1,20.9,87.9,102.1,100.5,42.3,1.626,
N#Cc1ccnc(S)c1 [Z2687203952],12,100,,,,,,,,,,,,,,,,,Avg (SARS-CoV-2 3CL protease [2]; [11]): 11.5; Avg (SARS-CoV-2 3CL protease [2]; [12]): 33.9; Avg (SARS-CoV-2 3CL protease [2]; [13]): 67.8; Avg (SARS-CoV-2 3CL protease [2]; [14]): 111.2; Avg (SARS-CoV-2 3CL protease [2]; [15]): 107.8; Avg (SARS-CoV-2 3CL protease [2]; [16]): 106.7; IC50 (SARS-CoV-2 3CL protease [2]; [17]): 17.4 µM; LogIC50 (SARS-CoV-2 3CL protease [2]; log10 of IC50 in µM): 1.241
Cc1cnc(=S)[nH]c1 [Z2768165643],41,100,,,,,,,,,,,,,,,,,Avg (SARS-CoV-2 3CL protease [2]; [11]): 41.2; Avg (SARS-CoV-2 3CL protease [2]; [12]): 59.8; Avg (SARS-CoV-2 3CL protease [2]; [13]): 69.1; Avg (SARS-CoV-2 3CL protease [2]; [14]): 106.7; Avg (SARS-CoV-2 3CL protease [2]; [15]): 109.4; Avg (SARS-CoV-2 3CL protease [2]; [16]): 108.2; IC50 (SARS-CoV-2 3CL protease [2]; [17]): 13 µM; LogIC50 (SARS-CoV-2 3CL protease [2]; log10 of IC50 in µM): 1.114
CN1C(=O)CCc2cc(C(=O)CCl)ccc21 [Z2491497303],6,87,5.9,25.5,13.7,51.4,86.8,97.7,48.8,1.688,,,,,,,,,
O=C(CCl)c1ccc2c(c1)CCN(C(=O)C(F)(F)F)C2 [Z1723943157],42,81,42.1,47.7,60.7,76.3,81,92.3,14.4,1.159,,,,,,,,,
C=CS(=O)(=O)c1nc2ccccc2s1 [Z3228044564],73,100,,,,,,,,,,,,,,,,,Avg (SARS-CoV-2 3CL protease [2]; [11]): 73.2; Avg (SARS-CoV-2 3CL protease [2]; [12]): 84.2; Avg (SARS-CoV-2 3CL protease [2]; [13]): 91.1; Avg (SARS-CoV-2 3CL protease [2]; [14]): 103.1; Avg (SARS-CoV-2 3CL protease [2]; [15]): 104; Avg (SARS-CoV-2 3CL protease [2]; [16]): 112.9
Cc1cc(C(=O)CCl)c(C)n1-c1ncn[nH]1 [Z57014347],35,100,,,,,,,,,,,,,,,,,Avg (SARS-CoV-2 3CL protease [2]; [11]): 35.1; Avg (SARS-CoV-2 3CL protease [2]; [12]): 51.1; Avg (SARS-CoV-2 3CL protease [2]; [13]): 60.8; Avg (SARS-CoV-2 3CL protease [2]; [14]): 75.5; Avg (SARS-CoV-2 3CL protease [2]; [15]): 101.2; Avg (SARS-CoV-2 3CL protease [2]; [16]): 107.2; IC50 (SARS-CoV-2 3CL protease [2]; [17]): 15.4 µM; LogIC50 (SARS-CoV-2 3CL protease [2]; log10 of IC50 in µM): 1.188
O=C(NCC1CCCCC1O)c1cccnc1S (stereo not drawn) [Z1252265470],0,100,,,,,,,,,-0.7,22.4,33.5,82,99.6,99.1,25.5,1.406,
O=C(NCC(CO)c1ccccc1)c1cccnc1S (stereo not drawn) [Z1346056045],2,96,,,,,,,,,2.4,13.5,19.9,74.2,95.6,87.7,32.4,1.51,
Cc1cc(C(=O)CCl)c(C)n1-c1ccccn1 [Z126674012],36,91,,,,,,,,,35.8,45.3,61.2,80.4,91.2,99.9,15.8,1.197,
N#C/C=C/S(=O)(=O)c1ccc(Cl)cc1 [Z1649581806],18,95,17.8,30.7,66.2,85.5,95.1,100.5,17.8,1.251,,,,,,,,,
O=C(NCc1ccc(F)c(CO)c1)c1cccnc1S [Z1501229042],27,100,,,,,,,,,26.5,32.3,50.8,101.4,101.9,89.2,19.9,1.299,
Nc1cccnc1S [Z1741977862],21,100,21.4,52.3,66.1,102.9,106.8,99.2,15.2,1.183,,,,,,,,,
Cc1cc(C(=O)CCl)c(C)n1-c1nccs1 [Z56979277],64,100,,,,,,,,,,,,,,,,,Avg (SARS-CoV-2 3CL protease [2]; [11]): 63.6; Avg (SARS-CoV-2 3CL protease [2]; [12]): 80.9; Avg (SARS-CoV-2 3CL protease [2]; [13]): 90.9; Avg (SARS-CoV-2 3CL protease [2]; [14]): 95.6; Avg (SARS-CoV-2 3CL protease [2]; [15]): 101.9; Avg (SARS-CoV-2 3CL protease [2]; [16]): 108.5
OCCc1cnc(S)nc1 [Z2064274637],5,100,5.2,28.9,36.1,91.7,103,105.7,23.4,1.369,,,,,,,,,
O=C(NCCC(O)c1ccccc1)c1cccnc1S (stereo not drawn) [Z1275438373],13,100,,,,,,,,,12.5,9.1,42.4,99.1,101.3,95.1,20.2,1.3058,
O=C(CCl)N1CCOC(c2ccc(F)cc2)C1 (stereo not drawn) [Z1562122812],31,100,31.1,36.9,59.9,101.2,96.2,101.8,18.4,1.2639,,,,,,,,,
N#Cc1ccc(S)nc1 [Z367678594],16,100,,,,,,,,,,,,,,,,,Avg (SARS-CoV-2 3CL protease [2]; [11]): 16.1; Avg (SARS-CoV-2 3CL protease [2]; [12]): 29.5; Avg (SARS-CoV-2 3CL protease [2]; [13]): 30.5; Avg (SARS-CoV-2 3CL protease [2]; [14]): 107.9; Avg (SARS-CoV-2 3CL protease [2]; [15]): 110.6; Avg (SARS-CoV-2 3CL protease [2]; [16]): 113.2; IC50 (SARS-CoV-2 3CL protease [2]; [17]): 25 µM; LogIC50 (SARS-CoV-2 3CL protease [2]; log10 of IC50 in µM): 1.398
COC(C)(C)CNC(=O)c1cccnc1S [Z1274680193],27,80,,,,,,,,,27.3,54.6,67.5,90.4,80.1,60.9,14.2,1.153,
Cc1ccccc1CN1CCN(C(=O)CCl)CC1 [Z208155076],18,85,18.2,5.8,36.6,64.8,84.6,98.1,35.8,1.554,,,,,,,,,
Cc1nc(CCNC(=O)c2cccnc2S)sc1C [Z1432661577],10,100,,,,,,,,,10.2,5.7,26.8,103,104.1,108.4,20.8,1.319,
O=C(c1ccc(S)nc1)N1CCCC1 [Z235362941],0,100,0.4,23.9,31.4,102.7,108.6,116.6,23.9,1.378,,,,,,,,,
O=C(CCl)c1ccc(N2CCCC2=O)cc1 [Z221603842],47,87,46.5,48.2,62.2,77.1,86.9,83.1,14,1.147,,,,,,,,,
NS(=O)(=O)c1ccc(S)nc1 [Z235344787],6,100,5.7,20.7,38.6,106.4,110.1,111.3,22.3,1.348,,,,,,,,,

# — PMC8989888, “Development of optimized drug-like small molecule inhibitors of the SARS-CoV-2 3CL protease for treatment of COVID-19” (Nature Communications, 2022)
